{
  "source": "paper PMC7481839",
  "about": "“Switchable foldamer ion channels with antibacterial activity” (Chemical Science, 2020)",
  "key": {"[1]": {"test_system": "human erythrocytes", "settings": "in phosphate buffer after 1 h incubation; read-out: reported EC50 for haemolysis; cited from earlier work", "excerpt": "Although alamethicin is a very active channel former, its use in the clinic is hampered by its high haemolytic activity.[52]"}, "[2]": {"test_system": "B. megaterium strain DSM319", "assay": "Antimicrobial assay: minimum inhibitory concentration (MIC)", "assay_type": "cell-based", "settings": "B. megaterium strain DSM319, LB broth, about 3 × 10^6 CFU/mL, 30 °C overnight, OD 600 nm, compound in DMSO, three biological repeats with three technical repeats", "procedure": "The antibiotic activities of 1, 2, Cu(II)[1]Cl2 and Cu(II)[2]Cl2 were measured against B. megaterium strain DSM319 (see the ESI ^†).\nMetal ion chelating Aib foldamers 1 and 2 bear a novel amino-terminal copper and nickel (ATCUN) binding motif; other ATCUN motifs are reported to increase antibiotic properties by generating reactive oxygen species upon metal binding.24 Furthermore many copper-containing metallodrugs have been stu died for their anticancer25 and antibiotic properties.26 Introducing the Cu(II)(BPTA) group onto the Aib octamer unit […]\nantibiotic studies of long Aib n oligomers (n ≥ 10).15\n7.1 Antimicrobial assays: minimum inhibitory concentrations (MIC)\nThe used procedure was developed by modification of published methods.27 The antimicrobial activity of the appropriate compound was tested against B. megaterium strain DSM319. Bacteria were grown over night at 30 °C in standard lysogeny broth (LB) broth from a single colony overnight. An aliquot from this suspension was taken and diluted (1:100) in fresh LB broth until the suspension reached the mid - logarithmic phase (OD600 = 0.4). […]\nThe plates were shaken for about 30 seconds and the optical density (OD) was measured at 600 nm.\nAfterwards the plates were incubated at 30 °C under aerobic conditions with shaking overnight. The absorbance was then measured at 600 nm using a ClarioStar plate reader. […]"}, "[3]": {"assay": "Lucigenin assay of Cl− transport in vesicles", "assay_type": "biochemical", "settings": "100 µM compound, interior NaNO3 200 mM, exterior NaCl (2 M), 25°C, first-order curve fit", "procedure": "To confirm that chloride could pass through the bilayers, lucigenin assays[5a] were performed for 2, Cu(II)[1]Cl2 and Cu(II)[2]Cl2 (Fig. 5 and ESI, Fig. S10 ^†). The same lipids were used as for the HPTS assays and lucigenin was encapsulated with NaNO3 in the vesicles.\nFigure S9: Ionophoric activity determined through an HPTS assay in the presence of NaCl (100 mM) for: 2 (10 µM) in the absence (pink inverted triangles) and presence of FCCP (20 µM, blue triangles) and Cu(II)[2]Cl2 (6 µM) in the absence (red circles) and presence of FCCP (20 µM, black squares). Base pulse at 1 min, TX-100 added at 7 min.\n5.4 Preparation of large unilamellar vesicles for lucigenin assays […]\nLucigenin assays procedure and fluorescence normalisation were developed by a modification of published methods.10 An aliquot of the vesicle stock solution (100 μL) w as diluted to 1.9 mL with 200 mM NaNO 3 in water (pH = 7.4) (final lipid co ncentration in cuvette 0.762 mM). […] The cuvette was then placed into a Varian Cary Eclipse fluorescence spectrophotometer in the moderate stirring mode. The fluorescence emission at 505 nm was observed, resulting from excitation at 455 nm, over a period of seven minutes (420 seconds) at 25°C. […] The change in fluorescence was followed for six minutes before final lysis of the vesicles at seven minutes (420 s) by adding an aliquot of a 10 % v/v solution of Triton X-100 […]"}, "[4]": {"settings": "cited from earlier work", "excerpt": "Application of Hille's equation[47] to estimate the inner channel diameters for both Cu(II)[2]Cl2 and Cu(II)[2]Cl·HCO3 provided approximate pore diameters of 1.5 nm, 2.1 nm and 2.3 nm for the different conductance levels (see the ESI ^†). […] Planar bilayer conductance (PBC) studies Alamethicin provides a useful comparison to the data reported in the manuscript and in the ESI."}, "[5]": {"test_system": "human erythrocytes", "assay": "Haemolysis assay", "assay_type": "cell-based", "settings": "fresh blood diluted with PBS (1:2), compound in DMSO, 37 °C for 30 min, triplicates, read-out: EC50 for haemolysis (haemoglobin release)"}},
  "note": "Where two headings read alike, the source gives them in different places.",
  "data": [
    {"substance": "alamethicin", "values": [
      {"measurement": "EC50", "setting": "[1]", "value": 1450, "unit": "nM"},
      {"measurement": "MIC, minimum inhibitory concentration", "setting": "[2]", "value": "6 ± 2", "unit": "µM"},
      {"measurement": "kobs of Cl− transport (lucigenin assay)", "setting": "[3]", "value": 0.0073, "unit": "s⁻¹"},
      {"measurement": "proposed pore diameter, hexameric pores", "setting": "[4]", "value": 1.1, "unit": "nm"},
      {"measurement": "proposed pore diameter, octameric pores", "setting": "[4]", "value": 1.8, "unit": "nm"},
      {"measurement": "EC50", "setting": "[5]", "value": 1400, "unit": "nM"}
    ]}
  ]
}
